17 compounds from PubChem BioAssay (NCI) can be followed below.

What all share (experiment): inhibition of tumour cell growth, NCI panel, 48 h
For assay [1], the system named is IGROV1 ovarian.
The subject of assay [2] is OVCAR-8 ovarian.
Assay [3] concerns RXF 393 renal.
Assay [4] relates to SF-295 CNS.
Assay [5] deals with SK-OV-3 ovarian.
The test system of assay [6] is SN12C renal.
Assay [7] concerns HCC-2998 colon.
The test system of assay [8] is SR leukemia.
For assay [9], the system named is NCI/ADR-RES ovarian.

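A five-concentration, 48-hour dose response in 96-well plates underlies each endpoint, interpolated linearly between surrounding concentrations. At the GI50, growth is halved. TGI denotes the concentration required for complete inhibition of growth.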

As to `Cc1cccc(-n2c(N)c(-c3nc4ccccc4[nH]3)sc2=S)c1`, the TGI in assay [1] turned out to be 78 µM; in assay [2], 72 µM; in assay [3], 72.9 µM; in assay [4], 68.1 µM; in assay [5], 91.7 µM; in [6], 86.9 µM.

With `COC(OC)c1cc2c(cc1C=O)OCO2`, the TGI in assay [7], in assay [1], in [2], in assay [3], in [5] and in assay [6] was > 100 µM each time. Moreover, the TGI in assay [8] is > 100 µM.

As for `CCC[CH2][Sn]([CH2]CCC)([O]c1cccc2cccnc12)[O]c1cccc2cccnc12`, the GI50 is 0.36 µM in [7]; 1 µM in assay [1]; 0.263 µM in assay [2]; 0.247 µM in assay [4]; 1.91 µM in assay [5]; 0.177 µM in [6]. In addition, the TGI in [7] was found to be 0.842 µM; in [1] it was 2.27 µM; in [2], 0.945 µM; in [4], 0.612 µM; in assay [5] it was 3.33 µM; in assay [6], 0.403 µM.

On to `CCOC(=O)C1SC(=Nc2ccc(OC)c(OC)c2)N=C1C` (stereo not given), for which the TGI in assay [7], in [1], in assay [2], in assay [3], in assay [4] and in [5] was > 100 µM in each case. In assay [6], the TGI was > 100 µM.

`COC(=O)c1cc(C(=O)OC)c(CC(=O)C(=O)NC2C3CC4CC(C3)CC2C4)nc1CC(=O)C(=O)NC1C2CC3CC(C2)CC1C3` (stereo not given): the TGI in assay [7], in assay [1], in assay [2], in assay [3], in [4] and in [5] was > 100 µM each time. Moreover, the TGI in [6] and in [8] was > 100 µM throughout.

`N#CC12CCC1C1CCCCC12N1CCSCC1` (stereo not given): the TGI in assay [7] is > 100 µM; in [1], > 100 µM; in assay [2], > 100 µM; in assay [3] it was 86.5 µM; in [4], > 100 µM; in assay [6], > 100 µM. For the same compound, the TGI in [8] is > 100 µM.

With `COc1cc(OC)c(C(=O)c2cccs2)cc1N`, the TGI in assay [7], in assay [1], in assay [2], in assay [3], in assay [4] and in assay [5] was > 100 µM in each case. Besides, the TGI in [6] is > 100 µM.

With `N#CC(C(=O)C(=O)Nc1ccccc1)c1ccccc1` (stereo not given), the TGI in assay [1], in assay [4], in assay [5], in assay [6] and in assay [8] was > 100 µM each time.

`Cc1n[nH]c(=S)n(C)c1=S`: the TGI in assay [1], in assay [2], in assay [3], in assay [4], in assay [5] and in assay [6] was > 100 µM in each case.

Take `COc1ccc(/C(=N\NC(=O)NN)C(c2ccc(OC)cc2)C2(O)C(=O)Nc3c(Cl)cc(Cl)cc32)cc1` (stereo not given): the TGI in [7], in assay [1], in assay [2], in [3], in assay [4] and in assay [6] was > 100 µM throughout.

In the case of `COc1ccc(/C=C2\CN(C(=O)C(Cl)Cl)C/C(=C\c3ccc(OC)cc3)C2=O)cc1`, the GI50 was 1.02 µM in assay [7]; 2 µM in [9]; 0.881 µM in assay [2]; 1.11 µM in assay [3]; 4.2 µM in assay [5]; 0.357 µM in assay [8]. The TGI in assay [7] was 2.2 µM; in [9], 15.1 µM; in assay [2], > 100 µM; in assay [3], 2.37 µM; in [5] it was > 100 µM; in assay [8], > 100 µM.

As to `C=C(CO)CC(O)c1cc(OC)ccc1OC` (stereo not given), the TGI in [7], in assay [1], in assay [2], in [3], in [4] and in assay [5] was > 100 µM each time. Besides, the TGI in [6] was > 100 µM.

As to `COC(=O)c1ccccc1N(C(=O)c1ccccc1)c1ccccc1C`, the TGI was > 100 µM in assay [7]; > 100 µM in assay [1]; > 100 µM in [2]; 92.1 µM in assay [3]; > 100 µM in assay [4]; 69.1 µM in assay [5]. The TGI in [6] was > 100 µM; in assay [8], 99.4 µM.

In the case of `O=C(O)C[C@@H](Cl)[C@H](NC(=O)OCc1ccccc1)C(=O)O`, the TGI in [7], in [1], in assay [2], in [3], in assay [4] and in assay [5] was > 100 µM throughout. Also, the TGI in assay [6] was > 100 µM.

As for `O=C(O)/C(Cl)=C(\Cl)C(=O)c1ccccc1`, the TGI in assay [7], in assay [1], in assay [2], in [3], in assay [4] and in assay [5] was > 100 µM each time. Further, the TGI in assay [6] and in [8] was > 100 µM throughout.

With `O=C1C(=O)N(c2ccc(Cl)cc2)C(=O)C(=O)C1c1nc2ccccc2o1`, the TGI in [7], in [1], in assay [2], in [3], in assay [4] and in [5] was > 100 µM throughout. For the same compound, in [6], the TGI was > 100 µM.

In the case of `CCCCCOCC(O)CO` (stereo not given), the TGI in assay [1], in [2], in assay [3], in assay [4] and in [6] was > 100 µM in each case.
